Data: patent US20050229276A1, “Method of producing cyclamen root tuber and method of proliferating cyclamen using the same” (Tokyo University of Agricultural, priority 2002, published 2005)

System: explants from petioles of cyclamen (species: Flamenco)
Assay: Culture of explants from petioles (comparative)
Type: cell-based
Details: NAA 0.05 mg/l, 20 explants planted, 30 days
Experimental: For comparison, the explants from leaves and petioles of cyclamen (species: Flamenco) were cultured for 30 days by changing the contents of BA and sucrose in a basal medium prepared by adding 0.05 mg/l of NAA and 6 g/l of agar to the ⅓ MS medium and having a pH of 7.0. In all the cases, the root tubers were hardly enlarged by culture and rarely regenerated and accordingly, a clonal plant could not be obtained with high reproducibility.

## c1ccc(CNc2ncnc3[nH]cnc23)cc1 [BA, benzylaminopurine]
BA 0.05 mg/l, sucrose 30 g/m
  Number of enlarged explants: 2
  Number of regenerate explants: 0
BA 0.05 mg/l, sucrose 50 g/m
  Number of enlarged explants: 1
  Number of regenerate explants: 0
BA 0.05 mg/l, sucrose 70 g/m
  Number of enlarged explants: 1
  Number of regenerate explants: 0
BA 0.05 mg/l, sucrose 90 g/m
  Number of enlarged explants: 0
  Number of regenerate explants: 0
BA 0.1 mg/l, sucrose 30 g/m
  Number of enlarged explants: 4
  Number of regenerate explants: 4
BA 0.1 mg/l, sucrose 50 g/m
  Number of enlarged explants: 5
  Number of regenerate explants: 1
BA 0.1 mg/l, sucrose 70 g/m
  Number of enlarged explants: 2
  Number of regenerate explants: 0
BA 0.1 mg/l, sucrose 90 g/m
  Number of enlarged explants: 1
  Number of regenerate explants: 0
BA 0.5 mg/l, sucrose 30 g/m
  Number of enlarged explants: 3
  Number of regenerate explants: 1
BA 0.5 mg/l, sucrose 50 g/m
  Number of enlarged explants: 4
  Number of regenerate explants: 1
BA 0.5 mg/l, sucrose 70 g/m
  Number of enlarged explants: 1
  Number of regenerate explants: 0
BA 0.5 mg/l, sucrose 90 g/m
  Number of enlarged explants: 0
  Number of regenerate explants: 0
BA 1 mg/l, sucrose 30 g/m
  Number of enlarged explants: 1
  Number of regenerate explants: 0
BA 1 mg/l, sucrose 50 g/m
  Number of enlarged explants: 1
  Number of regenerate explants: 10
BA 1 mg/l, sucrose 70 g/m
  Number of enlarged explants: 0
  Number of regenerate explants: 0
BA 1 mg/l, sucrose 90 g/m
  Number of enlarged explants: 0
  Number of regenerate explants: 0
